For experiment [1], the system named is 5-LO mediated product synthesis. Description: 5-LO mediated product synthesis in monocytes stimulated with LPS plus fMLP. Type of experiment: cell-based. Particulars: Homo sapiens, Monocyte.
Experiment [2] deals with T1, 5-LO plus FLAP (Homo sapiens, UniProt P20292).
T1 construct: expressed in transfected cells; host or cells: HEK293 (stably transfected)
T1 sequence (P20292 1-161): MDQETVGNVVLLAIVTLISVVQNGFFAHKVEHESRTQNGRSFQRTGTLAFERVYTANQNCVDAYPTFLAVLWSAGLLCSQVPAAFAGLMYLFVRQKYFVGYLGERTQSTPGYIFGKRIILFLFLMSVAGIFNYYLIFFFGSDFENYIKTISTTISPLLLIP
In words: 5-LO mediated product synthesis in HEK293 cells transfected with 5-LO plus FLAP. Type of experiment: cell-based. As to conditions: 2.5 µM A23187 plus 3 µM AA (Figure 7). As to the method:
Compound 9hj inhibited 5-LO mediated product synthesis in HEK293 cells transfected with only 5-LO, with IC50 of 900 nM. […] After preincubation of cells with 9hj for 15 min at 37°C, cells were stimulated with 2.5 µM A23187 plus 3 µM AA for 10 min at 37°C. Data are expressed as percentage of vehicle control (0.1% DMSO). 100% controls correspond to 157.48 ng mL^-1 for 5-LO transfected cells and 155.15 ng mL^-1 for 5-LO plus FLAP transfected cells.

Experiment [3] concerns the target T2, microsomal prostaglandin E synthase-1 (mPGES-1) (Homo sapiens, UniProt O14684).
T2 sequence (O14684 1-152): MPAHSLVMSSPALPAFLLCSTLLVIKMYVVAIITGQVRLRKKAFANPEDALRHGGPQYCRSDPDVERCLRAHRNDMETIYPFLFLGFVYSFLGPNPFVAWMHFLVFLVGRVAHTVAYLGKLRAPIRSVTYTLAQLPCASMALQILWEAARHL
Description: mPGES-1 inhibition. In kind it is biochemical. As to the method:
Compound 9hj inhibited microsomal prostaglandin E synthase-1 (mPGES-1) with IC50 of 5 µM.

For experiment [4], the target named is T3, 5-LO (Homo sapiens, UniProt P09917).
T3 sequence (P09917 1-674): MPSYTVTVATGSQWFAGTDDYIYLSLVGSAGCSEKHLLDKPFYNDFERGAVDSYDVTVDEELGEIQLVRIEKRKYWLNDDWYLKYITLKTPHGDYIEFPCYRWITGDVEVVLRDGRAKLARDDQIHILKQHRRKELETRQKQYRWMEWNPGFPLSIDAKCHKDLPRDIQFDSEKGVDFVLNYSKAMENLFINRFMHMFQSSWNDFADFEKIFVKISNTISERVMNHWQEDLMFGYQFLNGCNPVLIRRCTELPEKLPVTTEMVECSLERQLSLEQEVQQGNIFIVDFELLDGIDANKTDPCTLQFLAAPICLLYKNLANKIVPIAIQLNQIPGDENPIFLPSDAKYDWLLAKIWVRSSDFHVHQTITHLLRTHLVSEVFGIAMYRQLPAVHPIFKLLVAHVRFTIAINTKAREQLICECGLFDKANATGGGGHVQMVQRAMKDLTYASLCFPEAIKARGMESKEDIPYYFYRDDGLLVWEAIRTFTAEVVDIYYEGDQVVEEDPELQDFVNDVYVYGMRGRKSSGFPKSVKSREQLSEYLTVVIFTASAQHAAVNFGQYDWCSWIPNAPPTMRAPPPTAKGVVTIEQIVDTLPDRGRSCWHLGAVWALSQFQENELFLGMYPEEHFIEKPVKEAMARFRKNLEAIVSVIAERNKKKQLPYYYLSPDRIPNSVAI
In words: 5-LO mediated product formation in neutrophil homogenates (reducing conditions). As to conditions: with or without GSH (1 mM), 20 µM AA (Figure 6). Type of experiment: biochemical. On the set-up: endogenous in cells; host or cells: neutrophil homogenates. As to the method:
Cell based and cell-free assays carried out in biological studies, immunofluorescence microscopy analysis and zymosan-induced peritonitis in mice are performed as described hereinabove (Pegola, C. and et al., British J. Pharmacology, 2014, D01:10.1111/bph.12625). In the cell based assays (intact neutrophils or monocytes), 5-LO mediated product formation is started, after pre-incubation with test compounds (or control DMSO) for 15 min. at 37 °C, with addition of Ca-ionophore A23187 (2.5 µM) to the fresh 5 x 10^6 neutrophils or monocytes suspended in 1 ml of PGC buffer (phosphate buffered saline (PBS) solution containing 1 mg ml^-1 glucose and 1mM CaCl2, pH 7.4). After the incubation for 10 min. at 37 °C, the reaction is ended with addition of 1 ml of methanol, and 30 µL 1 N HCl, 200 ng prostaglandin B1 and 500 µL PBS are added to the mixture. […] Resulting 5-LO mediated products are extracted and analysed by the known method of high pressure liquid chromatography (HPLC) (Pergola, C. Proc Natl. Acad. Sci. U.S.A. 2008, 105, 19881). 5-LO mediated product formation (LTB4 and all trans isomers, and 5 (S)-hydro(pero)xy-6-trans-8, 11, 14-cis-eicosatetraenoic acid, 5-H(p)ETE) is expressed as ng per 10^6 cell. Cysteinyl-LTs have not been analyzed because that the amount of C4, D4 and E4 and LTB4 oxidation products are below the detection limit. […]

What is called IC50 is the concentration that gives 50% inhibition.

`O=C(O)c1noc(-c2ccc(OCc3ccc4ccccc4n3)cc2)c1-c1ccc(Cl)cc1` [Compound 9hj, 4-(4-Chlorophenyl)-5-(4-(quinolin-2-ylmethoxy)phenyl)isoxazole-3-carboxylic acid]: the IC50 in experiment [1] stood at 8 nM; in experiment [2] it was 310 nM; in experiment [3], 5000 nM; in experiment [4] it was 1000 nM.

These data come from patent EP2949653A1, “ISOXAZOLE DERIVATIVES AS LEUKOTRIENE BIOSYNTHESIS INHIBITORS” (Banoglu, Erden, priority 2014, dated 2015).
